pKd: −log10 of the molar value.
Molecular target: T1, 5-hydroxytryptamine receptor 2C (Rattus norvegicus, UniProt P08909)
T1 sequence (P08909 whole entry): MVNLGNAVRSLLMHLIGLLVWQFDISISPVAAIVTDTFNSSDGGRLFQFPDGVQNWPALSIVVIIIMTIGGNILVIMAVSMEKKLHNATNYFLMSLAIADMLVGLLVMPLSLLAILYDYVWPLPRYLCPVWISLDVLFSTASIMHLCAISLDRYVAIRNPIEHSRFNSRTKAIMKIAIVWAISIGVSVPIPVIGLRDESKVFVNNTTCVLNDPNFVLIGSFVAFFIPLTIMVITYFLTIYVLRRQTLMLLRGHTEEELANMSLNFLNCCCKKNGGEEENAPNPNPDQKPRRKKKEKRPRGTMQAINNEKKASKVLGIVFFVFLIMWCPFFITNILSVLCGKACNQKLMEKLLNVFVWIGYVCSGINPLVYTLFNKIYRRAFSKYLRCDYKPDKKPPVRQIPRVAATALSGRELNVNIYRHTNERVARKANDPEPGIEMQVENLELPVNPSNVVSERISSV
Assay: Binding affinity for 5-hydroxytryptamine 1C receptor was determined

## NCCc1c[nH]c2ccc(C(N)=O)cc12 [[3H]-5-carboxamidotryptamine]
  pKd: 6.20

Source: BindingDB's records for doi:10.1021/jm00065a015 (Smithkline Beecham Pharmaceuticals, 1993)
